Assay results as given in patent US11246873B2, “Directed differentiation of oligodendrocyte precursor cells to a myelinating cell fate” (The Scripps Research Institute, priority 2011, dated 2022).
Entries after “also recorded” stand apart in the source; their conditions may differ.

Columns and labels:
muscarinic receptor = test: Carbachol co-treatment in compound induced OPC differentiation (MBP staining); type: cell-based, rat; conditions: compounds at EC90 (benztropine 2.3 uM), serial dilutions of carbachol, 6 days
Description: (§1) Following 6 days of treatment, cells were fixed and stained for MBP. Plates were imaged using the OPERA high content screening system and MBP staining was quantified as described. […] OPCs were plated in 384-well plates at 5000 cells per well in media containing basal PDGF-αα. Cells were equilibrated with Ca^2+ sensitive Fluo-3AM® dye in HBSS for 30 min. […] Ca^2+ influx was immediately measured using the FLIPR TETRA® system.
OPCs express mAChRs, predominantly subtypes M1, M3, and M5 (F. Ragheb et al., J Neurochem, 77, 1396 (2001)). […] Activation of M1 and M3 mAChRs is coupled to downstream signal transduction events through phospholipase C, which results in increased intracellular calcium concentrations (F. Ragheb et al., J Neurochem, 77, 1396 (2001)) (FIG. 23C). M2 and M4 mAChR activation inhibits adenylatecyclase, leading to decreased intracellular cAMP levels (C. C. Felder, FASEB J, 9, 619 (1995); M. Lopez-Ilasaca et al., Science, 275, 394 (1997)). […] Acetylcholine is a known regulator of OPC proliferation and, as such, muscarinic receptor subtypes represent a reasonable class of therapeutic targets for the modulation of OPC proliferation and differentiation (F. De Angelis et al., Dev Neurobiol, (2011)).

OPCs [1] = test: qRT-PCR of MBP and MOG expression in compound treated OPCs; type: cell-based, rat; conditions: EC90 concentrations, 6 days
Excerpt: FIG. 2A-C. […] (A) Western blot analysis of OPCs treated with compounds at EC90 concentrations for 6 days. Total protein was isolated from cell pellets and probed for myelin basic protein (MBP) and myelin oligodendrocyte glycoprotein (MOG) using specific antibodies. (B-C) Quantitative RT-PCR (qRT-PCR) analysis of OPCs treated with compounds at EC90 concentrations for 6 days. Total RNA was isolated from cell pellets and reverse transcribed. MBP and MOG expression was quantified using specific probes and Taqman-based qRT-PCR. Expression was normalized to the internal controls β-actin and GAPDH. Fold change in gene expression over DMSO treated control cells is plotted for MBP (B) and MOG (C).

OPCs [2] = test: Immunofluorescence analysis of mature oligodendrocyte markers (MBP, MOG, CNP, GalC, O1, O4); type: cell-based, rat; conditions: OPCs treated 6 days
Excerpt: FIG. 3. Immunofluorescence analysis of compound treated OPCs using mature oligodendrocyte specific markers. Immunofluorescence staining using specific antibodies for MBP, MOG, and 2′,3′-cyclic nucleotide 3′ phosphodiesterase (CNP). Nuclei were identified using DAPI.
FIG. 4. Immunofluorescence analysis of compound treated OPCs using mature oligodendrocyte specific markers. Immunofluorescence staining using specific antibodies for galactocereberoside (GalC), oligodendrocyte marker O1 (O1) and oligodendrocyte marker O4 (O4). Nuclei were identified using DAPI.
FIG. 14. Compound treatment induces the differentiation of OPCs to mature oligodendrocytes. […] Cells were fixed and immunostained for MBP, MOG, CNP, GalC, O1, or O4.
Immunofluorescence was also used to confirm that the hits were able to induce oligodendrocyte maturation.

OPCs [3] = test: Western blot of MBP and MOG in compound treated OPCs; type: cell-based, rat; conditions: OPCs treated 6 days
Excerpt: FIG. 2A-C. Neurotransmitter receptor modulating agents induce the differentiation of OPCs to a myelinating oligodendrocyte cell fate. (A) Western blot analysis of OPCs treated with compounds at EC90 concentrations for 6 days. Total protein was isolated from cell pellets and probed for myelin basic protein (MBP) and myelin oligodendrocyte glycoprotein (MOG) using specific antibodies. (B-C) Quantitative RT-PCR (qRT-PCR) analysis of OPCs treated with compounds at EC90 concentrations for 6 days. Total RNA was isolated from cell pellets and reverse transcribed. MBP and MOG expression was quantified using specific probes and Taqman-based qRT-PCR. Expression was normalized to the internal controls β-actin and GAPDH. Fold change in gene expression over DMSO treated control cells is plotted for MBP (B) and MOG (C).
FIG. 13. […] After 6 days in culture, cells were analyzed for MBP and MOG expression by Western blot.

[4] = test system: M1/M3 muscarinic receptors
Description: as §1
(A-C) OPCs were plated in differentiation media for 12 hours. […] (C) Atropine, a muscarinic antagonist, serves as a positive control. (D) OPCs were plated in differentiation medium for 12 hours. A cAMP-HTRF assay was performed using the cAMP dynamic 2 kit. […] IBMX was added as a cAMP stabilizer, and forskolin was a positive control.

[5] = test system: rat optic nerve derived OPCs; test: High content imaging assay of OPC differentiation (MBP immunostaining, OPERA); type: cell-based; conditions: for induction of OPC differentiation (MBP staining): OPCs in differentiation medium (2 ng/ml PDGF), 6 days
Description: FIG. 1A-C. […] The calculated EC50 values were determined using appropriate Graphpad Prism 5.0 curve fitting software. […] OPCs were plated in 384 well plates at 1000 cells per well in OPC media containing basal PDGF-αα (2 ng/mL) and treated with serial dilutions of compounds. Following six days of compound treatment, cells were fixed and subjected to immunofluorescence analysis using anti-myelin basic protein (MBP) antibody. Image acquisition and quantification of MBP staining was performed using the OPERA imaging system.
FIG. 11A-B. Screen to identify inducers of OPC differentiation. (A) OPCs were maintained as proliferating A2B5-positive cells under basal growth conditions (Neurobasal medium, B27 supplement without Vitamin A, non-essential amino acids, L-Glutamine, 30 ng/ml PDGF). OPCs were plated in basal differentiation media (Neurobasal medium, B27 supplement without Vitamin A, non-essential amino acids, L-Glutamine, 2 ng/ml PDGF), treated with DMSO (<0.1%) or thyroid hormone (1 uM), fixed after 6 days in culture, and stained using antibodies for CNP, O4, or MBP. […] (B) Screen strategy using A2B5 positive OPCs cultured under basal differentiation conditions and treated with compounds for 6 days to identify small molecules that induce the differentiation of OPCs to mature, MBP expressing oligodendrocytes.
FIG. 12A-B. Primary hit confirmation. (A) Dose response assay used to confirm primary screening hits and determine potency (EC50). (EC50) is defined as the concentration that results in a half maximal increase in the percentage of total cells that express MBP as detected by immunostaining. […] Cells were fixed and immunostained using antibodies for MBP. Error bars represent standard deviations from 3 replicate experiments. […]
FIG. 21. […] OPCs were plated in differentiation medium (2 ng/ml PDGF) and treated with various concentrations of compounds for 6 days. Cells were fixed and immunostained for MBP.
A large-scale small molecule screen was conducted to identify small molecules that promote the differentiation of oligodendrocyte precursor cells (OPCs) to a mature myelinating fate. High content imaging was used to detect in-well differentiation of rat optic nerve derived OPCs. Rat optic nerve derived OPCs were expanded en masse in OPC media containing 30 ng/mL PDGFαα. To screen for small molecule inducers of OPC differentiation, OPCs (cultured for fewer than 15 passages) were plated in poly-D-lysine coated 384 well culture plates in OPC Media containing 2 ng/mL PDGFαα and immediately treated with compounds at a final concentration of 6 μM (0.6% DMSO). Compound treated cells were incubated at 37° C., 5% CO2 for 6 days. At the end of 6 days, cells were fixed in 4% paraformaldehyde and subjected to immunofluorescence analysis. Anti-Myelin Basic Protein monoclonal antibody (a.a. 129-138, clone 1 monoclonal antibody, Millipore) (1:1000 dilution) in blocking buffere solution (3% BSA, 0.3% Triton X-100 in PBS) was added to fixed and washed cells and incubated at 4° C. overnight.

PLP induced EAE mice = test system: PLP induced EAE mice
Description: (A-E) SJL mice were immunized with proteolipid peptide (PLP) and pertussis toxin and monitored daily with scoring on the standard clinical EAE scale (0-5). Compounds were administered daily for the duration of the study in saline at 10 mg/kg via intra-peritoneal injection (0.1 ml), starting on the day of the appearance of clinical EAE symptoms (day 10). […] Mean clinical EAE score and standard error of mean (SEM) are shown for each study group.
FIG. 25. […] EAE was induced in mice using PLP and pertussis toxin. […] Prophylactic dosing is defined as administration of compound commenced on the day of PLP injection. Error bars indicate standard deviation of the mean within each group of 8 mice.
(A-F) EAE was induced in mice using PLP and pertussis toxin. […] Error bars indicate standard deviation of the mean within each group of 8 mice.
(A-F) EAE was induced in mice by injecting PLP in complete Freund's adjuvant (CFA) and pertussis toxin, and the animals were scored daily for clinical severity of disease on a scale of 0-5. […] Error bars indicate standard deviation of the mean within each group of 8-10 mice.
10 week old SJL mice were immunized with PLP emulsion and pertusis toxin to induce EAE. […] Compounds were administered daily via intraperitoneal injection of 100 ul in sterile saline at 10 mg/kg alone or in combination with mycophenolate motefil in sterile saline at pH 5 at 20 mg/kg. Compound administration was initiated at disease onset (day 10) while mycophenolate motefil administration was initiated on Day 14. The mice were scored daily on a standard EAE scale of 0-5.
This model is most commonly used to evaluate the potential efficacy of immunomodulatory agents, but can also be used to determine the effectiveness of promyelinating agents that function by enhancing OPC differentiation (M. Fernandez et al., Proc Natl Acad Sci U.S.A, 101, 16363 (2004); X. Lee et al., J Neurosci, 27, 220 (2007); reviewed in R. J. Franklin, C. Ffrench-Constant, Nat Rev Neurosci, 9, 839 (2008)). […] We next evaluated efficacy when the drug is dosed therapeutically, by starting daily injections at the first sign of disease onset.
For the treatment of MS, an OPC differentiation inducing drug would most likely be introduced clinically as part of a combination therapy with an immunosuppressive drug. […] The former reduces T-cell proliferation and alters cytokine expression (A. Noronha, A. Toscas, M. A. Jensen, J Neuroimmunol, 46, 145 (1993); A. Noronha, A. Toscas, M. A. Jensen, Ann Neurol, 27, 207 (1990)), while the latter is an S1P agonist that regulates T-cell trafficking (V. Brinkmann et al., J Biol Chem, 277, 21453 (2002); V. Brinkmann et al., Nat Rev Drug Discov, 9, 883 (2010)).

[6] = test system: total splenocytes stimulated with CD3; test: T-cell activation (CD69, CD25) and proliferation (CFSE) in vitro; type: cell-based, mouse; conditions: versus DMSO
Excerpt: (A-F) Total splenocytes were isolated from mice and stimulated with CD3 and analyzed by flow cytometry for expression of T-cell activation markers CD69 and CD25 and T-cell proliferation using CFSE. (A) Unstimulated cells. (B) DMSO treated cells. […] The numbers represent percentage gated populations positive for the given marker.
The primary immunological processes involved in MS and EAE are T-cell mediated and the primary treatment paradigms are based on immunomodulatory drugs (T. Kopadze et al., Arch Neurol, 63, 1572 (2006); J. M. Greer et al., J Immunol, 180, 6402 (2007), M. P. Pender and J. M. Greer, curr Allergy Asthma Rep, 7, 285 (2007)).

SMILES | effect of carbachol on compound induced OPC differentiation (muscarinic receptor) | induction of MBP expression (qRT-PCR) over DMSO (OPCs [1]) | induction of MOG expression (qRT-PCR) over DMSO (OPCs [1]) | markers of mature myelinating oligodendrocytes (MBP, MOG, CNP, GalC, O1, O4) by immunofluorescence (OPCs [2]) | MBP and MOG expression (Western blot) (OPCs [3]) | effect on carbachol induced Ca2+ influx [4] | percentage of resulting MBP-positive cells ([5]; OPC sample cultured with agent at maximum potency, listed as GBT12935) | induction of OPC differentiation (MBP staining) [5] | effect of carbachol on compound induced OPC differentiation (muscarinic receptor; listed as carbapentane) | mean maximal clinical EAE score in relapse, day 25 (PLP induced EAE mice; SJL mice, scale 0-5, compounds 10 mg/kg i.p. daily from day 10, mycophenolate mofetil 20 mg/kg from day 14, mean ± SEM) | clinical severity versus vehicle, dosing after disease onset (therapeutic mode) (PLP induced EAE mice; compounds 10 mg/kg i.p. daily from first EAE symptoms, mycophenolate 20 mg/kg from day 14) | T-cell activation (CD69, CD25) [6] | T-cell proliferation (CFSE) [6]
c1ccc(CCCN2CCN(CCOC(c3ccccc3)c3ccccc3)CC2)cc1 [GBR12935] | did not inhibit; also recorded: no effect | two-fold | two-fold | confirmed the presence of multiple markers of mature myelinating oligodendrocytes | positive | no effect | over 15% | promote OPC differentiation |  |  |  |  | 
CCN(CC)CCOCCOC(=O)C1(c2ccccc2)CCCC1 [carbetapentane] | inhibited | two-fold | two-fold | confirmed the presence of multiple markers of mature myelinating oligodendrocytes | positive | inhibit |  | promote OPC differentiation | dose dependent inhibition |  |  |  | 
COc1c(C)c2c(c(O)c1C/C=C(\C)CCC(=O)OCCN1CCOCC1)C(=O)OC2 [Mycophenolate mofetil, mycophenolate mofetil] |  |  |  |  |  |  |  |  |  | 0.7±0.3 | decrease in severity of the relapse | suppresses the activation and proliferation of T-cells | suppresses T-cell proliferation
OCc1cc(C(O)CNCCCCCCOCCCCc2ccccc2)ccc1O (stereo not drawn) [salmeterol] | did not inhibit; also recorded: no effect | two-fold | two-fold | confirmed the presence of multiple markers of mature myelinating oligodendrocytes | positive | no effect |  | promote OPC differentiation |  |  |  |  | 
